Data as given in article PMC9405596, “Evaluation of the Anti-Leishmania mexicana and -Trypanosoma brucei Activity and Mode of Action of 4,4′-(Arylmethylene)bis(3-methyl-1-phenyl-1H-pyrazol-5-ol)” (Biomedicines, 2022).

Tests used:
[1] = design: method as in PMID 34082794; details: ref [17]; cited from earlier work
[2] = system: recombinant roGFP2 biosensor; test: In vitro fluorescence assay with recombinant roGFP2 biosensor; assay type: biochemical; details: 50 µM compound, 5 µM biosensor, 1 h
Procedure: The His-tagged recombinant form of a roGFP2 biosensor was expressed and purified from Escherichia coli (strain C41). An overnight pre-culture (LB medium + 50 µg/mL kanamycin, 220 rpm at 37 °C) of transformed cells was diluted 1:100 in fresh 2YT medium with 50 µg/mL kanamycin, and grown at 220 rpm and 37 °C until reaching an OD600 of ~0.8. At this time point, the culture was supplemented with IPTG (end concentration 1 mM) and the incubation was extended overnight at 100 rpm, 20 °C. Cells were harvested by centrifugation at 5000× g for 10 min at 4 °C and the cell pellet was resuspended in Buffer A (50 mM sodium phosphate, pH 8.0, 300 mM NaCl) at a ratio of 5 mL buffer per gram of pellet. Lysozyme (50 mg/mL) and DNAse (15 U/mL; Roche) were added to the cell homogenate and the suspension was incubated for 1 h on ice. Next, cells were sonicated for 2 min (30 s on/off pulses at an amplitude of 40%) and the lysate was centrifuged twice at 23,000× g, 4 °C, for 1 h. The clarified supernatant was filtered (0.4 µm filter) and applied to a 5 mL HisTrap column (GE Healthcare, Chicago, IL, USA) pre-equilibrated with Buffer A. The column was washed with 15 mL of Buffer A and then with 15 mL of Buffer A + 20 mM Imidazole. The recombinant protein was eluted from the column with Buffer A + 500 mM Imidazole. The elution fractions containing the biosensor (optical observation) were pooled and buffer exchanged against Buffer A using a PD-10 column (G25-sepharose, GE Healthcare). In order to remove the His-tag, the recombinant protein was digested overnight (4 °C) using 4.5 mg/mL TEV protease in Buffer A containing 5 mM DTT and 2 mM EDTA. Finally, the digested sample was applied to a 5 mL HisTrap column pre-equilibrated with Buffer A, and the flow-through containing the un-tagged biosensor was collected. The purity of the recombinant biosensor was evaluated by SDS-PAGE, and the protein concentration estimated by measuring absorbance at 280 nm (ε^280 23.290 M^−1cm^−1) in a Nanodrop DS-11 FX device. Upon purification, the biosensor was obtained in an oxidized state, as assessed via spectrofluorimetry (see below).
For the fluorescence assays, the recombinant biosensor was used at a final concentration of 5 µM and compounds at 50 µM in Buffer A with DMSO (final concentration 1%). DTT was added at 10 mM for achieving full biosensor reduction. Fluorescence spectra ([…] and emission) were recorded using a Cary Eclipse equipment. […]

[3] = system: hGrx1-roGFP2 redox biosensor in bloodstream T. brucei brucei; test: In-cell redox assay with hGrx1-roGFP2 biosensor (flow cytometry); details: compound at its IC50, 1 h
[4] = MTT cytotoxicity assay, murine macrophages; assay type: cell-based; details: mouse, RAW 264.7 macrophage cells, RAW 264.7, 48 h
Procedure: (§1) Murine macrophages (cell line RAW 264.7, ATCC® TIB-71™) were grown in Dulbecco’s Modified Eagle Medium (DMEM) (Gibco, Invitrogen, Waltham, MA, USA) supplemented with 10% fetal bovine serum (FBS) (Eurobio) and 100 IU/mL penicillin + 100 µg/mL streptomycin (Gibco), at 37 °C, in an atmosphere containing 5% CO2. Human hepatocyte cell line HepG2 (ATCC® HB-8065™) was grown in MEM (Gibco, Invitrogen) supplemented with 10% FBS (Gibco, Invitrogen), 1% NEAA (Gibco, Invitrogen), and 1% L-glutamine (Gibco, Invitrogen). The medium was renewed twice a week. For both cell lines, the viability was determined using the MTT assay as described before for leishmanicidal activity assessment, with some variations. Here, 5 × 10^4 cells/well in a final volume of 100 µL were seeded into a 96-well plate, in triplicate for RAW macrophages and in duplicate for HepG2. Saponin (2.4 mg/mL) and untreated cells were used as positive control and negative control, respectively. Compounds were dissolved in DMSO to obtain different serial concentrations (1.56 to 800 µM) for RAW macrophages and 100–0.001 µM for HepG2. The final concentration of DMSO in each well was 0.5%. After exposure to compounds for 48 h and 72 h for RAW and HepG2 cells, respectively, 10 µL/well of MTT (5 mg/mL in PBS) was added, incubated at 37 °C for 2 h in darkness, and cells were pelleted via centrifugation at 4400 rpm for 10 min. The medium was removed, and 100 µL/well of DMSO was added to dissolve formazan. The absorbance at 570 and 630 nm was recorded following the same procedure as with parasites.

[5] = MTT cytotoxicity assay, HepG2; assay type: cell-based; details: human, HepG2 cells, HepG2, 72 h, read-out: CC50 HepG2 Hepatocytes
Procedure: as §1

[6] = system: bloodstream form of T. b. brucei (strain 427); test: Bioluminescence viability assay against bloodstream T. b. brucei expressing luciferase; details: for T. brucei SI vs. Hepatocytes: CC50 HepG2 hepatocytes/IC50 T. brucei; for T. brucei bloodstream SI vs. Macrophages: CC50 RAW macrophages/IC50 T. brucei; for IC50: read-out: T. brucei bloodstream IC50, 24 h, bioluminescence
[7] = system: L. mexicana promastigotes; test: MTT viability assay against L. mexicana promastigotes; assay type: cell-based, Leishmania mexicana
Procedure: The leishmanicidal activity against promastigotes from L. mexicana was evaluated by measuring parasites’ mitochondrial activity using the MTT (Thiazolyl Blue Tetrazolium Bromide) colorimetric assay as described previously. […] The medium was renewed every third day and subcultures were prepared when parasite density reached 1 × 10^7 parasites/mL. A Neubauer chamber was used to determine parasite density.

[8] = system: Human hepatocyte cell line HepG2; details: read-out: CC50 HepG2 Hepatocytes, ref [47]; cited from earlier work
[9] = system: bloodstream T. b. brucei; test: Microscopic observation of cell motility; assay type: cell-based, Trypanosoma brucei brucei; details: 0.9 µM, 24 h, vs vehicle-treated parasites

Structure (SMILES)	radical scavenging activity relative to ascorbic acid [1]	direct oxidation of the reduced recombinant biosensor [2]	prevention of biosensor oxidation (oxidized form) [2]	intracellular biosensor oxidation ([3]; relative to diamide (full oxidation) and DTT (reduction))	biosensor oxidation vs. DMSO ([3]; vs. DMSO)	CC50 at 48 h [4]	CC50 at 72 h [5]	T. brucei SI vs. Hepatocytes [6]	T. brucei bloodstream SI vs. Macrophages [6]	activity at 10 µM ([6]; Trypanosoma brucei, 24 h, read-out: T. brucei bloodstream % Growth (10 µM), 10 µM, 24 h)	IC50 ([6]; Trypanosoma brucei, 24 h)	L. mexicana Promastigote SI vs. Hepatocytes ([7]; CC50 HepG2 hepatocytes/IC50 L. mexicana)	L. mexicana Promastigote SI vs. Macrophage ([7]; CC50 RAW macrophages/IC50 L. mexicana)	SI against T. brucei, range over both mammalian cell lines ([6]; murine macrophages and HepG2 hepatocytes)	CC50 [8]	cell motility by microscopic observation [9]	IC50 ([7]; Leishmania mexicana, 48 h, read-out: L. mexicana Promastigote IC50, promastigotes, 48 h, MTT)
Cc1nn(-c2ccccc2)c(O)c1C(c1ccc(C(F)(F)F)cc1)c1c(C)nn(-c2ccccc2)c1O [Compound 2r]	higher	did not induce direct oxidation	11–13%	56%	23%	54 ± 3 µM	20 ± 4 µM	2.0	5.4	≤ 50%	10 ± 3 µM	6.1	16.4				
CC1CS(=O)(=O)CCN1/N=C/c1ccc([N+](=O)[O-])o1 (stereo not shown) [Nifurtimox, reference compound]						> 100 µM		13			3.5 µM			13–28.5	45 ± 1 µM		
Cc1nn(-c2ccccc2)c(O)c1C(c1ccc(O)cc1O)c1c(C)nn(-c2ccccc2)c1O [Compound 2y, 4,4′-[(2,4-dihydroxyphenyl)methylene]bis(3-methyl-1-phenyl-1H-pyrazol-5-ol)]						170 ± 1 µM	> 100 µM	>111	189		0.9 ± 0.2 µM					did not reveal an impairment of cell motility	> 50 µM
